target: T1, human B1R (Homo sapiens, UniProt P46663); experiment: Functional assay at bradykinin receptor 1 (B1R): Ca2+ fluorescence (Fluo-4) in FLIPR/Novostar, antagonist mode; type: cell-based; details: test substance 10 µM; CHO K1 cells stably transfected with human B1R gene (hB1R-Zellen); agonist Lys-Des-Arg9-Bradykinin at EC80; % inhibition relative to maximal achievable inhibition; read-out: % Inhibierung (human B1R) bei 10 µM
T1 construct: expressed in transfected cells; host or cells: CHO K1 cells (Chinese Hamster Ovary), stably transfected
T1 sequence (P46663 1-353): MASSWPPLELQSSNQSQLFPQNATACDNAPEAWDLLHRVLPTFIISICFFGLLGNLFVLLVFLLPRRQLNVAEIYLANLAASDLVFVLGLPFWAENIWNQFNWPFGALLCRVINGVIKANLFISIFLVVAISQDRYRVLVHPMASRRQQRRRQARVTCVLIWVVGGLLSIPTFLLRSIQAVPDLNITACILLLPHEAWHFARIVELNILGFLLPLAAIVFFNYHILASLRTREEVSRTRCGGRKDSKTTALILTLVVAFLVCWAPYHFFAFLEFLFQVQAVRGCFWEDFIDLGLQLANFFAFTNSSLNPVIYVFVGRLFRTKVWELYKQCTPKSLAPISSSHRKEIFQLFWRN
Procedure, shortened: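 Antagonism read as suppression of the Ca2+ rise in Fluo-4-loaded, hB1R-transfected CHO K1 cells when Lys-Des-Arg9-bradykinin (EC80) follows a 6–20 min compound preincubation. Maximal fluorescence counts, measured on FLIPR or Novostar, yield % inhibition relative to maximum; IC50 values come from concentration series run in duplicate or triplicate.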

In order of falling inhibition at 10 µM:
1. Cc1cc(S(=O)(=O)Cc2noc(C(=O)N3CCN(c4ccncc4)CC3)n2)c(C)cc1Cl [CC-144, [3-[[(4-Chlor-2,5-dimethyl-phenyl)sulfonyl]-methyl]-[1,2,4]oxadiazol-5-yl]-(4-pyridin-4-yl-piperazin-1-yl)-methanon]  100%
2. Cc1cccc(Cl)c1S(=O)(=O)Cc1noc(C(=O)N2CCC3(CC2)CCN(c2ccncc2)C3)n1 [CC-145, [3-[[(2-Chlor-6-methyl-phenyl)sulfonyl]-methyl]-[1,2,4]oxadiazol-5-yl]-(3-pyridin-4-yl-3,8-diazaspiro[4.5]decan-8-yl)-methanon]  100%
3. Cc1cc(S(=O)(=O)Cc2noc(C(=O)N3CCC4(CC3)CCN(c3ccncc3)CC4)n2)c(C)cc1Cl [CC-146, [3-[[(4-Chlor-2,5-dimethyl-phenyl)sulfonyl]-methyl]-[1,2,4]oxadiazol-5-yl]-(9-pyridin-4-yl-3,9-diazaspiro[5.5]undecan-3-yl)-methanon]  100%
4. COc1cc(C)c(S(=O)(=O)Cc2noc(C(=O)N3CCC4(CCN(C)C4)C3)n2)c(C)c1 (stereo not drawn) [CC-147, [3-[[(4-Methoxy-2,6-dimethyl-phenyl)sulfonyl]-methyl]-[1,2,4]oxadiazol-5-yl]-(2-methyl-2,8-diazaspiro[4.4]nonan-8-yl)-methanon]  100%
5. Cc1cccc(Cl)c1S(=O)(=O)Cc1noc(C(=O)N2CCC3(CC2)CCN(c2ccncc2)CC3)n1 [CC-148, [3-[[(2-Chlor-6-methyl-phenyl)sulfonyl]-methyl]-[1,2,4]oxadiazol-5-yl]-(9-pyridin-4-yl-3,9-diazaspiro[5.5]undecan-3-yl)-methanon]  100%
6. COc1cc(C)c(S(=O)(=O)Cc2noc(C(=O)N3[C@@H]4CC[C@H]3CC(Oc3ccncc3)C4)n2)c(C)c1 (stereo partly drawn) [CC-149, [3-[[(4-Methoxy-2,6-dimethyl-phenyl)sulfonyl]-methyl]-[1,2,4]oxadiazol-5-yl]-[(1S,5R)-3-pyridin-4-yloxy-8-azabicyclo[3.2.1]octan-8-yl]-methanon]  100%
7. Cc1cccc(Cl)c1S(=O)(=O)Cc1noc(C(=O)N2C3CCC2CC(Oc2ccncc2)C3)n1 [CC-150, [3-[[(2-Chlor-6-methyl-phenyl)sulfonyl]-methyl]-[1,2,4]oxadiazol-5-yl]-[(1S,5R)-3-pyridin-4-yloxy-8-azabicyclo[3.2.1]octan-8-yl]-methanon]  100%
8. Cc1cc(S(=O)(=O)Cc2noc(C(=O)N3CCC4(CC3)CCN(c3ccncc3)C4)n2)c(C)cc1Cl [CC-152, [3-[[(4-Chlor-2,5-dimethyl-phenyl)sulfonyl]-methyl]-[1,2,4]oxadiazol-5-yl]-(3-pyridin-4-yl-3,8-diazaspiro[4.5]decan-8-yl)-methanon]  100%
9. COc1cc(C)c(S(=O)(=O)Cc2cn(CC(=O)NC3CCC(N4CCCC4)CC3(C)C)nn2)c(C)c1 (stereo not drawn) [CC-158, N-(2,2-Dimethyl-4-pyrrolidin-1-yl-cyclohexyl)-2-[4-[[(4-methoxy-2,6-dimethyl-phenyl)sulfonyl]-methyl]-1H-[1,2,3]triazol-1-yl]-acetamid]  100%
10. COCCN1CCC(NC(=O)Cn2cc(CS(=O)(=O)c3c(C)cc(OC)cc3C)nn2)C(C)(C)C1 (stereo not drawn) [CC-160, 2-[4-[[(4-Methoxy-2,6-dimethyl-phenyl)sulfonyl]-methyl]-1H-[1,2,3]triazol-1-yl]-N-[1-(2-methoxy-ethyl)-3,3-dimethyl-piperidin-4-yl]-acetamid]  100%
11. COc1cc(C)c(S(=O)(=O)Cc2cn(CC(=O)NC3CCC(N4CCN(C)CC4)CC3(C)C)nn2)c(C)c1 (stereo not drawn) [CC-162, N-[2,2-Dimethyl-4-(4-methyl-piperazin-1-yl)-cyclohexyl]-2-[4-[[(4-methoxy-2,6-dimethylphenyl)sulfonyl]-methyl]-1H-[1,2,3]triazol-1-yl]-acetamid]  100%
12. COc1cc(C)c(S(=O)(=O)Cc2c(C)nn(CC(=O)NC3CCC(N4CCCC4)CC3)c2C)c(C)c1 (stereo not drawn) [CC-164, 2-[4-[[(4-Methoxy-2,6-dimethyl-phenyl)sulfonyl]-methyl]-3,5-dimethyl-1H-pyrazol-1-yl]-N-(4-pyrrolidin-1-yl-cyclohexyl)-acetamid]  100%
13. COCCN1CCC(NC(=O)Cn2nc(C)c(CS(=O)(=O)c3c(C)cc(OC)cc3C)c2C)C(C)(C)C1 (stereo not drawn) [CC-165, 2-[4-[[(4-Methoxy-2,6-dimethyl-phenyl)sulfonyl]-methyl]-3,5-dimethyl-1H-pyrazol-1-yl]-N-[1-(2-methoxy-ethyl)-3,3-dimethyl-piperidin-4-yl]-acetamid]  100%
14. COc1cc(C)c(S(=O)(=O)Cc2c(C)nn(CC(=O)NC3CCC(N4CCN(C)CC4)CC3(C)C)c2C)c(C)c1 (stereo not drawn) [CC-166, N-[2,2-D imethyl-4-(4-methyl-piperazin-1-yl)-cyclohexyl]-2-[4-[[(4-methoxy-2,6-dimethyl-phenyl)sulfonyl]-methyl]-3,5-dimethyl-1 H-pyrazol-1-yl]-acetamid]  100%
15. COc1cc(C)c(S(=O)(=O)Cc2cn(CC(=O)NC3CCC(N4CCCC4)CC3)nn2)c(C)c1 (stereo not drawn) [CC-167, 2-[4-[[(4-Methoxy-2,6-dimethyl-phenyl)sulfonyl]-methyl]-1H-[1,2,3]triazol-1-yl]-N-(4-pyrrolidin-1-yl-cyclohexyl)-acetamid]  100%
16. COc1cc(C)c(S(=O)(=O)Cc2c(C)nn(CC(=O)NC3CCC(N(C)C)CC3)c2C)c(C)c1 (stereo not drawn) [CC-168, N-(4-Dimethylamino-cyclohexyl)-2-[4-[[(4-methoxy-2,6-dimethyl-phenyl)sulfonyl]-methyl]-3,5-dimethyl-1 H-pyrazol-1-yl]-acetamid]  100%
17. COc1cc(C)c(S(=O)(=O)Cc2cn(CC(=O)NC3CCC(N(C)C)CC3)nn2)c(C)c1 (stereo not drawn) [CC-169, N-(4-Dimethylamino-cyclohexyl)-2-[4-[[(4-methoxy-2,6-dimethyl-phenyl)sulfonyl]-methyl]-1H-[1,2,3]triazol-1-yl]-acetamid]  100%
18. COc1cc(C)c(S(=O)(=O)Cc2cc(C)n(CC(=O)NC3CCC(N4CCN(C)CC4)CC3(C)C)n2)c(C)c1 (stereo not drawn) [CC-163, N-[2,2-Dimethyl-4-(4-methyl-piperazin-1-yl)-cyclohexyl]-2-[3-[[(4-methoxy-2,6-dimethyl-phenyl)sulfonyl]-methyl]-5-methyl-1H-pyrazol-1-yl]-acetamid]  99%
19. COc1cc(C)c(S(=O)(=O)Cc2c(C)nn(CC(=O)NC3CCC(N4CCCC4)CC3(C)C)c2C)c(C)c1 (stereo not drawn) [CC-170, N-(2,2-Dimethyl-4-pyrrolidin-1-yl-cyclohexyl)-2-[4-[[(4-methoxy-2,6-dimethyl-phenyl)sulfonyl]-methyl]-3,5-dimethyl-1H-pyrazol-1-yl]-acetamid]  99%
20. COc1cc(C)c(S(=O)(=O)Cc2cc(C)n(CC(=O)NC3CCC(N4CCCC4)CC3(C)C)n2)c(C)c1 (stereo not drawn) [CC-155, N-(2,2-Dimethyl-4-pyrrolidin-1-yl-cyclohexyl)-2-[3-[[(4-methoxy-2,6-dimethyl-phenyl)sulfonyl]-methyl]-5-methyl-1 H-pyrazol-1-yl]-acetamid]  98%
21. COc1cc(C)c(S(=O)(=O)Cc2cc(C)n(CC(=O)NC3CCC(N4CCCC4)CC3)n2)c(C)c1 (stereo not drawn) [CC-156, 2-[3-[[(4-Methoxy-2,6-dimethyl-phenyl)sulfonyl]-methyl]-5-methyl-1H-pyrazol-1-yl]-N-(4-pyrrolidin-1-yl-cyclohexyl)-acetamid]  98%
22. COc1cc(C)c(S(=O)(=O)Cc2noc(CC(=O)N3CCC(Cc4ccncc4)CC3(C)C)n2)c(C)c1 (stereo not drawn) [CC-153, 1-[2,2-Dimethyl-4-(pyridin-4-yl-methyl)-piperidin-1-yl]-2-[3-[[(4-methoxy-2,6-dimethyl-phenyl)-sulfonyl]-methyl]-[1,2,4]oxadiazol-5-yl]-ethanon]  92%
23. COc1cc(C)c(S(=O)(=O)Cc2cn(CC(=O)NC3CCN(C(C)=O)CC3(C)C)nn2)c(C)c1 (stereo not drawn) [CC-161, N-(1-Acetyl-3,3-dimethyl-piperidin-4-yl)-2-[4-[[(4-methoxy-2,6-dimethyl-phenyl)sulfonyl]-methyl]-1H-[1,2,3]triazol-1-yl]-acetamid]  92%
24. COc1cc(C)c(S(=O)(=O)Cc2cc(C)n(CC(=O)NC3CCC(N(C)C)CC3)n2)c(C)c1 (stereo not drawn) [CC-154, N-(4-Dimethylamino-cyclohexyl)-2-[3-[[(4-methoxy-2,6-dimethyl-phenyl)sulfonyl]-methyl]-5-methyl-1 H-pyrazol-1-yl]-acetamid]  80%
25. COc1cc(C)c(S(=O)(=O)Cc2cc(C)n(CC(=O)NC3CCNCC3(C)C)n2)c(C)c1 (stereo not drawn) [CC-171, N-(3,3-Dimethyl-piperidin-4-yl)-2-[3-[[(4-methoxy-2,6-dimethyl-phenyl)sulfonyl]-methyl]-5-methyl-1 H-pyrazol-1-yl]-acetamid]  71%
26. COCCN1CCC(NC(=O)Cn2nc(CS(=O)(=O)c3c(C)cc(OC)cc3C)cc2C)C(C)(C)C1 (stereo not drawn) [CC-157, 2-[3-[[(4-Methoxy-2,6-dimethyl-phenyl)sulfonyl]-methyl]-5-methyl-1H-pyrazol-1-yl]-N-[1-(2-methoxy-ethyl)-3,3-dimethyl-piperidin-4-yl]-acetamid]  61%
27. COc1cc(C)c(S(=O)(=O)Cc2cc(C)n(CC(=O)NC3CCN(C(C)=O)CC3(C)C)n2)c(C)c1 (stereo not drawn) [CC-159, N-(1-Acetyl-3,3-dimethyl-piperidin-4-yl)-2-[3-[[(4-methoxy-2,6-dimethyl-phenyl)sulfonyl]-methyl]-5-methyl-1 H-pyrazol-1-yl]-acetamid]  50%

Reference: patent publication EP2857388A1, “Azoles containing sulfone” (Grünenthal GmbH, priority 2013, dated 2015)
